Measurements published in US20200215204A1, “EARLY-ONSET PARKINSON'S DISEASE MODEL: (D331Y) PLA2G6 KNOCKIN MODEL, PLATFORM AND METHOD FOR DRUG SCREENING, AND KIT OF DETECTION” (Chang Gung Memorial Hospital, Linkou, priority 2019, published 2020).

Key:
[1] = system: PLA2G6^D331Y/D331Y knockin mice; test: Locomotor activity in open field boxes after L-DOPA in homozygous (D331Y) PLA2G6 knockin mice; format: in vivo; details: about 1.5 mg/kg; homozygous PLA2G6^D331Y/D331Y knockin mouse at about 9 months old
Procedure: Behavioral Assessments The locomotor activity of WT or (D331Y) PLA2G6 KI mice were evaluated in open field boxes for 60 minutes. Movements of animal were recorded and assessed with the TopScan video tracking system (Clever Sys., Inc.). The locomotor activity of mouse was examined by measuring the velocity and distance. To evaluate the therapeutic benefit of L-DOPA in PLA2G6^D331Y/D331Y mice, benserazide (0.5 mg/kg) and L-DOPA (1.5 mg/kg) were intraperitoneally administered into animal. The locomotor activity was recorded 40 min after the injection.

[2] = system: MPTP-induced mice model of PD; details: 25 mg/kg for 21 days; MPTP-induced mice model of PD (Zhao T. T. et al.); cited from earlier work
[3] = system: PD patients carrying PLA2G6 mutations; details: cited from earlier work

## N[C@@H](Cc1ccc(O)c(O)c1)C(=O)O [L-DOPA]
[1]
  symptoms of motor deficit: significantly improve symptoms of said motor deficit
[2]
  therapeutic effect: significant therapeutic effect
[3]
  effectiveness in treating patients: effective
